{
  "source": "patent US10851069B2",
  "about": "“Compositions of crystallized hydrophobic compounds and methods of making and using same” (Massachusetts Institute of Technology, priority 2016, dated 2020)",
  "key": {"C57BL/6 mice": {"tested_on": "C57BL/6 mice", "experiment": "Crystalline drug-loaded alginate capsules, long-term IP/SC implantation, prevention of fibrosis", "type": "in vivo", "details": "crystalline form in alginate capsules, retrieved after 1, 3 and 6 months from IP space", "source_text": "Lead compounds identified by screening the amorphous formulations (e.g., compounds of Formulae I-X, particularly LY215799, Dx, Curcumin, GW2580, QNZ and Ki20227) were studied for long-term release and prevention of fibrosis following encapsulation in crystalline form and implantation into the intraperitoneal (IP) space of C57BL/6 mice for long term testing. […] Drug extraction analysis by HPLC also determined that notable percentages (e.g., more than 50%) of the loaded drug remained within the retrieved capsules (FIG. 22D), particularly in the subcutaneous implanted samples. […] In contrast, capsules retrieved from the IP space 6 months post-implantation were identified with only 2-40% of the loaded drug remaining within the retrieved capsules.\nAll animal protocols were approved by the MIT Committee on Animal Care, and all surgical procedures and post-operative care was supervised by MIT Division of Comparative Medicine veterinary staff. Immune-competent male non-diabetic or STZ-induced diabetic C57BL/6 mice (Jackson Laboratory, Bar Harbor, Me.) were anesthetized with 3% isoflurane in oxygen and had their abdomens shaved and sterilized using betadine and isopropanol. Preoperatively, all mice also received a 0.05 mg/kg dose of buprenorphine subcutaneously as a pre-surgical analgesic, along with 0.3 mL of 0.9% saline subcutaneously to prevent dehydration. A […] incision was made along the midline of the abdomen and the peritoneal lining was exposed using blunt dissection. The peritoneal wall was then grasped with forceps and a 0.5-1 mm incision was made along the linea alba. A desired volume of spheres (all materials without islets, as well as SLG20 spheres encapsulating rat islets) were then loaded into a sterile pipette and implanted into the peritoneal cavity through the incision. The incision was then closed using 5-0 taper-tipped polydioxanone (PDS II) absorbable sutures. The skin was then closed over the incision using a wound clip and tissue glue.\nAt desired time points post-implantation or transplantation (with encapsulated islets), as specified in figures, mice were euthanized by CO2 administration, followed by cervical dislocation. In certain instances, 5 ml of ice cold PBS was first injected in order perform an intraperitoneal lavage to rinse out and collect free-floating intraperitoneal immune cells. An incision was then made using the forceps and scissors along the abdomen skin and peritoneal wall, and intraperitoneal lavage volumes were pipetted out into fresh 15 ml falcon tubes (each prepared with 5 ml of RPMI cell culture media). Next, a wash bottle tip was inserted into the abdominal cavity. KREBS buffer was then used to wash out all material spheres from the abdomen and into petri dishes for collection. After ensuring all the spheres were washed out or manually retrieved (if fibrosed directly to intraperitoneal tissues), they were transferred into 50 mL conical tubes for downstream processing and imaging. After intraperitoneal lavage and sphere retrieval, remaining fibrosed intraperitoneal tissues were also excised for downstream FACS and expression analyses.\nFor phase contrast imaging, retrieved materials were gently washed using Krebs buffer and transferred into 35 mm petri dishes for phase contrast microscopy using an Evos X1 microscope (Advanced Microscopy Group).\nImmunofluorescence imaging was used to determine immune populations attached to spheres. […]"}, "[1]": {"experiment": "Drug levels in retrieved capsules, IP lavage and plasma in non-human primates (HPLC, LCMS)", "type": "in vivo, cynomolgus macaques", "procedure": "LC pumps used are Agilent 1290 Infinity Binary pumps with CTC Pal Autosampler. MS is a Sciex API6500 triple quad. Sample Storage Conditions: −80° C. Sample Processing Extraction Volume: 10 μL. Extraction Method: Protein Precipitation. For example: GW2580 plasma concentration analysis: Sample Extraction Procedure: 1. 10 μL of calibration standards, quality controls, blanks and samples were aliquoted into a 96-well plate. 2. 60 μL of IS-SS (internal standard) (100 ng/mL QNZ, carbutamide, chrysin, carbamazepine, glafenine, dexamethasone, glyburide, and d4AEA in acetonitrile) were added to all samples except for double blanks. 60 μL of acetonitrile was then added to double blanks. 3. The plate was covered and samples mixed, followed by centrifugation for 5 minutes at 3000 rpm at 4° C. 4. 50 μL of supernatant was then transferred into a clean 96-well plate using a liquid handler. 5. Samples were diluted with 100 μL of MilliQ water, and the plate was once again covered and mixed for about a minute prior to sample injection onto the LC-MS/MS at 1.00-2,500 ng/mL. LC Conditions: Waters BEH C18, 50×2.1 mm, 1.7 μm. Run temperature: 50° C. Mobile Phase A, 95:5:0.1 (v:v:v) Water:Acetonitrile:Formic Acid (1.2 min). Mobile Phase B, 50:50:0.1 (v:v:v) Methanol:Acetonitrile:Formic Acid (1.3 min). Flow: 0.8 mL/min. Injection Volume: 2 μL. MS Conditions: MS/MS: API-6500. Ionization Method: Electrospray. Positive/Negative Ion: Positive. Resolution: Unit. Source Temperature (° C.): 550. Transitions (m/z): Compound ID: GW2580 367.0/245.1 Da. Int Std ID: QNZ 357.0/197.1 Da. Data Analysis: Acceptance Criteria ‘±20% (±25% at the LLOQ), Regression Type, Linear (1/(x*x)), Accepted Curve Range 1.00-2,500 ng/mL Carryover 0.00%. HPLC\nCalibration curves were obtained on an Agilent LC 1100 Series (Agilent Technologies, CA, USA) equipped with binary pump (G1312 Å), auto-sampler (G1313 Å), degasser and photodiode detector (DAD, G1315 Å). Chemstation was used for system control, data processing and data acquisition for LC. Chromatographic separation was achieved by an analytical Waters Atlantis T3 C18 column (5 μm, 4.6×250 mm). The temperature of column and auto-sampler were kept at 20° C.\nStock solution of GW2580 was prepared in dimethyl sulfoxide (DMSO) at a target concentration of 10 mg/ml and appropriate dilutions were made in DMSO to prepare standards (0.25-2500 μg/ml) for calibration curve of GW2580. 10 μl of standard solution was injected and the analytes were eluted by gradient mode using (A) acetonitrile and (B) 0.1% formic acid in water at a constant flow rate of 1 ml/min. The gradient conditions of mobile phase were as follows: 0 min 10% A, 10 min 95% A, 14 min 95% A, 16 min 10% A, 20 min 10% A."}},
  "data": [
    {"smiles": "COc1ccc(COc2ccc(Cc3cnc(N)nc3N)cc2OC)cc1", "note": "[GW2580, 5-[[3-Methoxy-4-[(4-methoxyphenyl)methoxy]phenyl]methyl]-2,4-pyrimidinediamine]", "values": [
      {"measurement": "fibrosis by phase contrast imaging and confocal microscopy", "setting": "C57BL/6 mice", "value": "fibrosis free"},
      {"measurement": "remaining drug extracted from retrieved capsules", "setting": "[1]; 0.5 mm capsules, IP space, 3 months", "value": "little to no drug"},
      {"measurement": "remaining drug extracted from retrieved capsules", "setting": "[1]; 1.5 mm capsules, IP and SC sites, up to 6 months", "value": "additional stores"},
      {"measurement": "plasma drug concentration", "setting": "[1]; at the termination of the study", "value": "below detection limits"},
      {"measurement": "IP space (lavage) drug concentration", "setting": "[1]; beyond 4 weeks, below detectable limit", "value": "< 0.5", "unit": "ng/mL"},
      {"measurement": "concentration at 4 weeks", "setting": "[1]; cynomolgus monkey, intraperitoneal space lavage fluid, ip, 4 weeks post-implantation", "value": "2 to 3", "unit": "ng/mL"}
    ]}
  ]
}
